{"source": "paper PMC4287973", "about": "“Tumor cell-specific inhibition of MYC function using small molecule inhibitors of the HUWE1 ubiquitin ligase” (EMBO Molecular Medicine, 2014)", "tested_on": "MIZ1", "experiment": "HUWE1-mediated decrease in MIZ1 levels in transfected HeLa cells", "format": "cell-based", "details": "MG132 10 µM for 6 hrs", "text": "Neither depletion nor chemical inhibition of HUWE1 affected the expression of any member of the MXD family of repressor proteins that antagonize transactivation by MYC or nuclear localization of MYC (Supplementary Figs S9A and S10). […] In contrast, ectopic expression of HUWE1 had only moderate effects on steady-state levels of MYC, consistent with the results obtained in response to depletion of HUWE1 (Fig6A). As a result, ectopic expression of HUWE1 increased the relative amount of MYC that is not bound to MIZ1 (Fig6B). […] Consistently, depletion or chemical inhibition of HUWE1 increased steady-state levels of MIZ1 in colon carcinoma cells (Fig6D and E). Similarly, depletion or inhibition of HUWE1 increased levels of MIZ1 in mouse keratinocytes (Supplementary Fig S11B and C), in which HUWE1 is known to degrade MIZ1 (Inoue et al, [2013]).\nPeter et al. HUWE1 inhibition\nB. Immunofluorescence staining of MYC upon HUWE1 inhibition. Ls174T cells were treated […]\nSupplementary Figure S11: Characterization of HUWE1 effects on MIZ1 stability.\nA, Effect of proteasome inhibition on HUWE1-induced downregulation of MIZ1. HeLa cells were transfected with plasmids encoding MIZ1 and HA-HUWE1. Cells were treated with BI8622 (20 µM) for 24 hrs, DMSO served as solvent control. MG132 was used at 10 µM for 6 hrs. Lysates were analyzed for expression of HUWE1 and MIZ1, Vinculin was used as […]", "note": "Where a SMILES comes first, the peptide text is derived from it. The star is where a group is joined. Cbz = O=C(OCc1ccccc1)*", "data": [{"smiles": "CC(C)C[C@@H](C=O)NC(=O)[C@H](CC(C)C)NC(=O)[C@H](CC(C)C)NC(=O)OCc1ccccc1", "note": "[MG132] (Cbz-Leu-Leu-Leu-aldehyde)", "values": [{"measurement": "HUWE1-mediated decrease in MIZ1 levels", "result": "blocked"}]}]}
